Laboratory results from ChEMBL document CHEMBL3046832, “Synthesis of some sulfonamides, disubstituted sulfonylureas or thioureas and some structurally related variants. A class of promising antitumor agents” (2007).

What was measured:
Format in all cases: functional
M14 = test: Cytotoxicity against Homo sapiens (human) M14 cells after 48 hr by SRB assay; settings: M14, 48 h
U-251 = test: Cytotoxicity against Homo sapiens (human) U251 cells after 48 hr by SRB assay; settings: U-251, 48 h
SNB-75 = test: Cytotoxicity against Homo sapiens (human) SNB75 cells after 48 hr by SRB assay; settings: SNB-75, 48 h
Hs-578T = test: Cytotoxicity against Homo sapiens (human) Hs578T cells after 48 hr by SRB assay
MCF7 [1] = test: Cytotoxicity against Homo sapiens (human) MCF7 cells after 48 hr by SRB assay; settings: MCF7, 48 h
MDA-MB-231 = test: Cytotoxicity against Homo sapiens (human) MDA-MB-231 cells after 48 hr by SRB assay; settings: MDA-MB-231, 48 h
UO-31 = test: Cytotoxicity against Homo sapiens (human) UO31 cells after 48 hr by SRB assay; settings: UO-31, 48 h
RXF 393 = test: Cytotoxicity against Homo sapiens (human) RXF393 cells after 48 hr by SRB assay; settings: RXF 393, 48 h
SN12C = test: Cytotoxicity against Homo sapiens (human) SN12C cells after 48 hr by SRB assay
CAKI-1 = test: Cytotoxicity against Homo sapiens (human) Caki1 cells after 48 hr by SRB assay; settings: CAKI-1, 48 h
786-0 = test: Cytotoxicity against Homo sapiens (human) 786-0 cells after 48 hr by SRB assay; settings: 786-0, 48 h
[2] = Cytotoxicity against Homo sapiens (human) NCI-ADR-RES cells after 48 hr by SRB assay
SK-OV-3 = test: Cytotoxicity against Homo sapiens (human) SKOV3 cells after 48 hr by SRB assay; settings: SK-OV-3, 48 h
OVCAR-5 = test: Cytotoxicity against Homo sapiens (human) OVCAR5 cells after 48 hr by SRB assay; settings: OVCAR-5, 48 h
OVCAR-4 = test: Cytotoxicity against Homo sapiens (human) OVCAR4 cells after 48 hr by SRB assay; settings: OVCAR-4, 48 h
IGROV-1 = test: Cytotoxicity against Homo sapiens (human) IGROV1 cells after 48 hr by SRB assay; settings: IGROV-1, 48 h
OVCAR-3 = test: Cytotoxicity against Homo sapiens (human) OVCAR3 cells after 48 hr by SRB assay; settings: OVCAR-3, 48 h
UACC-62 = test: Cytotoxicity against Homo sapiens (human) UACC62 cells after 48 hr by SRB assay; settings: UACC-62, 48 h
UACC-257 = test: Cytotoxicity against Homo sapiens (human) UACC257 cells after 48 hr by SRB assay; settings: UACC-257, 48 h
SK-MEL-2 = test: Cytotoxicity against Homo sapiens (human) SK-MEL-2 cells after 48 hr by SRB assay; settings: SK-MEL-2, 48 h
[3] = Cytotoxicity against Homo sapiens (human) breast cancer cells after 48 hr by SRB assay; settings: Cancer cell lines
[4] = Cytotoxicity against Homo sapiens (human) prostate cancer cells after 48 hr by SRB assay; settings: Cancer cell lines
[5] = Cytotoxicity against Homo sapiens (human) renal cancer cells after 48 hr by SRB assay; settings: Cancer cell lines
[6] = Cytotoxicity against Homo sapiens (human) ovarian cancer cells after 48 hr by SRB assay; settings: Cancer cell lines
[7] = Cytotoxicity against Homo sapiens (human) melanoma cells after 48 hr by SRB assay; settings: Melanoma cell
[8] = Cytotoxicity against Homo sapiens (human) non-small cell lung cancer cells after 48 hr by SRB assay; settings: Cancer cell lines
NCI-H460 [9] = test: Cytotoxicity against Homo sapiens (human) NCI-H460 cells assessed as cellular growth after 48 hr by Alamar blue assay; parameters: concentration or dose not given beside the values
[10] = Cytotoxicity against Homo sapiens (human) leukemia cells after 48 hr by SRB assay; settings: Leukemia cell
SF-268 = test: Cytotoxicity against Homo sapiens (human) SF268 cells assessed as cellular growth after 48 hr by Alamar blue assay; parameters: concentration or dose not given beside the values
BT-549 = test: Cytotoxicity against Homo sapiens (human) BT549 cells after 48 hr by SRB assay; settings: BT-549, 48 h
T47D = test: Cytotoxicity against Homo sapiens (human) T47D cells after 48 hr by SRB assay
SF-539 = test: Cytotoxicity against Homo sapiens (human) SF539 cells after 48 hr by SRB assay; settings: SF-539, 48 h
SF-295 = test: Cytotoxicity against Homo sapiens (human) SF295 cells after 48 hr by SRB assay; settings: SF-295, 48 h
SW-620 = test: Cytotoxicity against Homo sapiens (human) SW620 cells after 48 hr by SRB assay; settings: SW-620, 48 h
KM12 = test: Cytotoxicity against Homo sapiens (human) KM12 cells after 48 hr by SRB assay; settings: KM12, 48 h
HCT-15 = test: Cytotoxicity against Homo sapiens (human) HCT15 cells after 48 hr by SRB assay; settings: HCT-15, 48 h
HT-29 = test: Cytotoxicity against Homo sapiens (human) HT-29 cells after 48 hr by SRB assay; settings: HT-29, 48 h
HCC 2998 = test: Cytotoxicity against Homo sapiens (human) HCC2998 cells after 48 hr by SRB assay; settings: HCC 2998, 48 h
NCI-H522 = test: Cytotoxicity against Homo sapiens (human) NCI-H522 cells after 48 hr by SRB assay; settings: NCI-H522, 48 h
NCI-H23 = test: Cytotoxicity against Homo sapiens (human) NCI-H23 cells after 48 hr by SRB assay; settings: NCI-H23, 48 h
[11] = Cytotoxicity against Homo sapiens (human) NCI-H322 cells after 48 hr by SRB assay; settings: NCI-H322, 48 h
NCI-H460 [12] = test: Cytotoxicity against Homo sapiens (human) NCI-H460 cells after 48 hr by SRB assay; settings: NCI-H460, 48 h
EKVX = test: Cytotoxicity against Homo sapiens (human) EKVX cells after 48 hr by SRB assay
HOP-62 = test: Cytotoxicity against Homo sapiens (human) HOP62 cells after 48 hr by SRB assay; settings: HOP-62, 48 h
RPMI-8226 = test: Cytotoxicity against Homo sapiens (human) RPMI8226 cells after 48 hr by SRB assay; settings: RPMI-8226, 48 h
A549 = test: Cytotoxicity against Homo sapiens (human) A549 cells after 48 hr by SRB assay; settings: A549, 48 h
MCF7 [13] = test: Cytotoxicity against Homo sapiens (human) MCF7 cells assessed as cellular growth after 48 hr by Alamar blue assay; parameters: concentration or dose not given beside the values

Question: For `NS(=O)(=O)c1ccc(N2N=C3c4ccccc4CC3C2c2cccs2)cc1` (centres undefined), which GI50 (M14) is on record?
Answer: 26 µM

Question: And the GI50 (U-251)?
Answer: 19.4 µM

Question: And the GI50 (SNB-75)?
Answer: 31.1 µM

Question: And the GI50 (Hs-578T)?
Answer: 28.7 µM

Question: And the GI50 (MCF7 [1])?
Answer: > 100 µM

Question: And the GI50 (MDA-MB-231)?
Answer: 16.8 µM

Question: What about the GI50 (UO-31) of the same compound?
Answer: 39.4 µM

Question: What about the GI50 (RXF 393) of the same compound?
Answer: 20.6 µM

Question: What about the GI50 (SN12C) of the same compound?
Answer: 23.5 µM

Question: And the GI50 (CAKI-1)?
Answer: 19.6 µM

Question: What about the GI50 (786-0) of the same compound?
Answer: 17.6 µM

Question: What about the GI50 [2] of the same compound?
Answer: 17.1 µM

Question: And the GI50 (SK-OV-3)?
Answer: 48 µM

Question: What about the GI50 (OVCAR-5) of the same compound?
Answer: 26.6 µM

Question: And the GI50 (OVCAR-4)?
Answer: > 100 µM

Question: What about the GI50 (IGROV-1) of the same compound?
Answer: 30 µM

Question: And the GI50 (OVCAR-3)?
Answer: 24.8 µM

Question: What about the GI50 (UACC-62) of the same compound?
Answer: 21.8 µM

Question: And the GI50 (UACC-257)?
Answer: 29.7 µM

Question: And the GI50 (SK-MEL-2)?
Answer: > 100 µM

Question: And the GI50 [3]?
Answer: 38.3 µM

Question: And the TGI [3]?
Answer: 52.1 µM

Question: And the GI50 [4]?
Answer: 18.3 µM

Question: And the TGI [4]?
Answer: 48.6 µM

Question: What about the GI50 [5] of the same compound?
Answer: 21.9 µM

Question: And the TGI [5]?
Answer: 43.7 µM

Question: And the GI50 [6]?
Answer: 40.8 µM

Question: And the TGI [6]?
Answer: 79.6 µM

Question: And the GI50 [7]?
Answer: 41.5 µM

Question: And the TGI [7]?
Answer: 51 µM

Question: And the GI50 [8]?
Answer: 29.6 µM

Question: What about the TGI [8] of the same compound?
Answer: 45.5 µM

Question: And the Activity (NCI-H460 [9])?
Answer: <=32%

Question: What about the GI50 [10] of the same compound?
Answer: 35.1 µM

Question: What about the TGI [10] of the same compound?
Answer: 95.5 µM

Question: What about the Activity (SF-268) of the same compound?
Answer: <=32%

Question: What about the GI50 (BT-549) of the same compound?
Answer: 19.3 µM

Question: And the GI50 (T47D)?
Answer: 66.9 µM

Question: And the GI50 (SF-539)?
Answer: 17.4 µM

Question: And the GI50 (SF-295)?
Answer: 16.2 µM

Question: What about the GI50 (SW-620) of the same compound?
Answer: 35.4 µM

Question: What about the GI50 (KM12) of the same compound?
Answer: 15.7 µM

Question: And the GI50 (HCT-15)?
Answer: 34.7 µM

Question: What about the GI50 (HT-29) of the same compound?
Answer: 26.1 µM

Question: What about the GI50 (HCC 2998) of the same compound?
Answer: 14.8 µM

Question: What about the GI50 (NCI-H522) of the same compound?
Answer: 39.3 µM

Question: What about the GI50 (NCI-H23) of the same compound?
Answer: 20.3 µM

Question: And the GI50 [11]?
Answer: 5.79 µM

Question: And the GI50 (NCI-H460 [12])?
Answer: > 100 µM

Question: What about the GI50 (EKVX) of the same compound?
Answer: 15.9 µM

Question: And the GI50 (HOP-62)?
Answer: 16.9 µM

Question: And the GI50 (RPMI-8226)?
Answer: 32.3 µM

Question: And the GI50 (A549)?
Answer: 13.1 µM

Question: What about the Activity (MCF7 [13]) of the same compound?
Answer: <=32%
